Test results reported in patent US5248677A, “Biogentic amine uptake inhibitors” (priority 1992, dated 1993).
pIC50: −log10 of the molar value. Counter-ions that a name gives are not always drawn.

Tests used:
Format in all cases: biochemical, rat (Male Sprague-Dawley)
norepinephrine uptake = assay: NE (norepinephrine) uptake inhibition, synaptosomal preparation (hypothalamus); conditions: rat hypothalamus synaptosomes, 0.1 μM tritiated amine, 37° C., 4 minutes
Experimental: (§1) For the purpose of identifying compounds as biogenic amine uptake inhibitors capable of interacting with the uptake carrier, ligand-carrier binding assays were carried out as an initial sceen.
(§2) Male Sprague-Dawley derived rats, weighing about 180-250 g each (purchased from Sasco Animal Laboratories, Oregon, Wis.) were sacrificed by decapitation. The brains were immediately removed, placed on a chilled glass plate and dissected according to a modification of the method of Glowinski and Iversen (J. Glowinski and L. L. Iversen, J Neurochem, 1966, 13: 655-669). First, the rhombencephalon was separated by a transverse section and discarded. The rest of the brain was divided into two portions by making another transverse section at the level of the optic chiasma. The hypothalamus, which was used for norepinephrine uptake studies, was removed from the posterior part by using the anterior commissure as the horizontal reference point and a line between the posterior hypothalamus and mammillary bodies as the caudal limit. The striatum, which was used for dopamine uptake studies, was also dissected from the posterior portion using the external wall of the lateral ventricle as the internal limit and the corpus collosum as the external limit. The frontal parts of the striatum were removed from the anterior portion of the cerebrum and combined with the striatal tissue from the posterior segment. The cortex, which was used for serotonin uptake studies, was composed of the rest of the anterior portion of the cerebrum and the cortical surfaces removed from the posterior segment. The hypothalamus and the striatum each weighed about 100 mg or slightly less, whereas the cortex weighed up to 800 mg. The tissues were placed in a cold Potter-Elvehjem glass homogenizer with 5 (cortex) or 10 (hypothalamus) or 20 (striatum) volumes of ice-cold 0.32M sucrose, pH 7, and homogenized by hand. The homogenate was centrifuged (on a Multifuge®, American Scientific Products) at 2500 rpm for 10 minutes in a refrigerated room (~4° C.). The supernatant fraction containing the synaptosomes was decanted, mixed thoroughly and kept on crushed ice for use in the uptake studies.
(§3) Uptake studies were conducted according to the method of Snyder and Coyle (S. H. Snyder and J. T. Coyle, J Pharmacol Exp Ther, 1969, 165: 78-86) with minor modifications. Usually a 0.1 mL aliquot of the synaptosomal preparation was incubated in a mixture of 0.75 mL of modified Krebs-Ringerbuffer, 0.05 mL of the drug being tested, and 0.1 mL of a 1 μM solution of the labeled (tritiated) amine (final concentration 0.1 μM), for a total volume of 1 mL. The modified Krebs-Ringer bicarbonate buffer used in these studies contained 118 mM sodium chloride, 4 mM potassium chloride, 1.3 mM calcium chloride, 1.12 mM potassium dihydrogen phosphate, 1.2 mM magnesium sulfate and 24 mM sodium bicarbonate, with the addition of 5 mM glucose, 0.15 mM disodium EDTA, 12.5 μM nialamide and 1 mM ascorbic acid. Uptake was initiated by the addition of the tritiated amine and the mixture was incubated at 37° C. in a Dubnoff Metabolic Shaking Incubator for 4 minutes. A preincubation period was not included since it had been reported that results were similar with and without preincubation of the synaptosomal preparation (G. Vosmer, et al. Biochem Pharmacol, 1980, 24: 2557-2562). Control incubations without the test drug were conducted at 37° C. to determine total uptake and at 0° C. (in a crushed ice bath) to correct for the diffusion of the tritiated amine into the synaptosomes and/or binding.
(§4) Filtration was used to terminate uptake and collect the synaptosomes (C. A. Csernansky, et al. J Pharmacol Methods, 1985, 13: 187-191). In the filtration technique, the incubation mixture was diluted with ice-cold 0.9% aqueous sodium chloride solution and filtered through GF/B glass microfiber filters (Whatman) under reduced pressure. […]

5-HT (serotonin) uptake = 5-HT (serotonin) uptake inhibition, synaptosomal preparation (cortex); conditions: 5-hydroxytryptamine, rat cortex synaptosomes, 0.1 μM tritiated amine, 37° C., 4 minutes
Experimental: as §1, §2, §3, §4

dopamine uptake = assay: DA (dopamine) uptake inhibition, synaptosomal preparation (striatum); conditions: rat striatum synaptosomes, 0.1 μM tritiated amine, 37° C., 4 minutes
Experimental: as §1, §2, §3, §4

Structure (SMILES): COc1ccc2c(c1)CCC1C(Cc3ccccc3)NCC21 (mixture of isomers) [Example 1, cis/trans 2,3,3a,4,5,9b-Hexahydro-7-methoxy-3-phenylmethyl-1H-benz[e]isoindole hydrochloride]
- pIC50 (norepinephrine uptake; hydrochloride): 6.28
- pIC50 (5-HT (serotonin) uptake; hydrochloride): 5.14
- pIC50 (dopamine uptake; hydrochloride): 5.12

Structure (SMILES): COc1ccc2c(c1)CC[C@H]1[C@@H]2CN(C)[C@@H]1Cc1ccccc1 (relative stereo) [Example 8, cis-anti-2,3,3a,4,5,9b-Hexahydro-7-methoxy-2-methyl-3-phenylmethyl-1H-benz[e]isoindole methanesulfonic acid salt]
- pIC50 (norepinephrine uptake): 6.92
- pIC50 (5-HT (serotonin) uptake): 5.57
- pIC50 (dopamine uptake): 5.33

Structure (SMILES): CC1C[C@H]2c3ccccc3CC[C@H]2CN1Cc1ccccc1 (relative stereo) [Example 71A, cis-2-Methyl-1,2,3,4,4a,5,6,10b-octahydro-3-phenylmethyl-benz[f]isoquinoline]
- pIC50 (norepinephrine uptake): 8.01
- pIC50 (5-HT (serotonin) uptake): 5.67
- pIC50 (dopamine uptake): 6.35

Structure (SMILES): CC1C[C@H]2c3ccccc3CC[C@H]2CN1Cc1ccccc1 (relative stereo) [Example 71B, cis-2-Methyl-1,2,3,4,4a,5,6,10b-octahydro-3-phenylmethyl-benz[f]isoquinoline]
- pIC50 (norepinephrine uptake): 7.92
- pIC50 (5-HT (serotonin) uptake): 5.69
- pIC50 (dopamine uptake): 6.20

Structure (SMILES): CN1C[C@@H]2c3ccccc3CC[C@@H]2CCC1Cc1ccccc1 (relative stereo) [Example 77, (+)-cis-2-Methyl-1,3,4,5,5a,6,7,11b-octahydro-3-phenylmethyl-2H-naphth[1,2-c]azepine hydrochloride]
- pIC50 (norepinephrine uptake): 6.72
- pIC50 (5-HT (serotonin) uptake): 5.38
- pIC50 (dopamine uptake): 5.29

Structure (SMILES): CN1CC2c3ccccc3CCC2C1Cc1cccc(Cl)c1 (single isomer, unassigned) [Example 47, 3-(3-Chlorophenyl)methyl-2,3,3a,4,5,9b-hexahydro-2-methyl-1H-benz[e]isoindole hydrochloride]
- pIC50 (norepinephrine uptake): 7.39
- pIC50 (5-HT (serotonin) uptake): 5.90
- pIC50 (dopamine uptake): 6.65

Structure (SMILES): CN1CC2c3ccccc3CCC2CCC1Cc1ccccc1 (single isomer, unassigned) [Example 75A, cis-2-Methyl-1,3,4,5,5a,6,7,11b-octahydro-3-phenylmethyl-2H-naphth[1,2-c]azepine hydrochloride]
- pIC50 (norepinephrine uptake; hydrochloride): 7.52
- pIC50 (5-HT (serotonin) uptake; hydrochloride): 6.64
- pIC50 (dopamine uptake; hydrochloride): 6.35

Structure (SMILES): CN1CC2c3ccccc3CCC2CCC1Cc1ccccc1 (single isomer, unassigned) [Example 75B, cis-2-Methyl-1,3,4,5,5a,6,7,11b-octahydro-3-phenylmethyl-2H-naphth[1,2-c]azepine hydrochloride]
- pIC50 (norepinephrine uptake; hydrochloride): 6.29
- pIC50 (5-HT (serotonin) uptake; hydrochloride): 5.38
- pIC50 (dopamine uptake; hydrochloride): 5.55

Structure (SMILES): COc1cccc2c1CCC1CCC(Cc3ccccc3)N(C)CC21 (single isomer, unassigned) [Example 76A, 8-Methoxy-2-methyl-1,3,4,5,5a,6,7,11b-octahydro-3-phenylmethyl-2H-naphth[1,2-c]azepine hydrochloride]
- pIC50 (norepinephrine uptake; hydrochloride): 8.46
- pIC50 (5-HT (serotonin) uptake; hydrochloride): 6.41
- pIC50 (dopamine uptake; hydrochloride): 6.28

Structure (SMILES): COc1cccc2c1CCC1CCC(Cc3ccccc3)N(C)CC21 (single isomer, unassigned) [Example 76B, 8-Methoxy-2-methyl-1,3,4,5,5a,6,7,11b-octahydro-3-phenylmethyl-2H-naphth[1,2-c]azepine hydrochloride]
- pIC50 (norepinephrine uptake; hydrochloride): 6.63
- pIC50 (5-HT (serotonin) uptake; hydrochloride): 6.46
- pIC50 (dopamine uptake; hydrochloride): 5.66

Structure (SMILES): CN1CC2c3ccccc3CCC2CCC1Cc1ccccc1 (single isomer, unassigned; (-)) [Example 78, (-) 2-Methyl-1,3,4,5,5a,6,7,11b-octahydro-3-phenylmethyl-2H-naphth[1,2-c]azepine hydrochloride]
- pIC50 (norepinephrine uptake): 8.01
- pIC50 (5-HT (serotonin) uptake): > 6.00
- pIC50 (dopamine uptake): 6.72

Structure (SMILES): COc1ccc2c(c1)CCC1C2CN(C)C1Cc1ccccc1 (stereo not drawn) [Example 2, cis-2,3,3a,4,5,9b-Hexahydro-7-methoxy-2-methyl-3-phenylmethyl-1H-benz[e]isoindole methanesulfonic acid salt]
- pIC50 (norepinephrine uptake): 7.24
- pIC50 (5-HT (serotonin) uptake): 5.38
- pIC50 (dopamine uptake): 6.74

Structure (SMILES): CCN1CC2c3ccc(OC)cc3CCC2C1Cc1ccccc1 (stereo not drawn) [Example 3, cis-2-Ethyl-2,3,3a,4,5,9b-hexahydro-7-methoxy-3-phenylmethyl-1H-benz[e]isoindole methanesulfonate salt]
- pIC50 (norepinephrine uptake): 7.74
- pIC50 (5-HT (serotonin) uptake): 5.86
- pIC50 (dopamine uptake): 6.65

Structure (SMILES): COc1ccc2c(c1)CCC1C(Cc3ccccc3)NCC21 (stereo not drawn) [Example 6, trans-2,3,3a,4,5,9b-Hexahydro-7-methoxy-3-phenylmethyl-1H-benz[e]isoindole methanesulfonic acid salt]
- pIC50 (norepinephrine uptake): 6.27
- pIC50 (5-HT (serotonin) uptake): 5.19
- pIC50 (dopamine uptake): 5.00

Structure (SMILES): COc1ccc2c(c1)CCC1C2CN(C)C1Cc1ccccc1 (stereo not drawn) [Example 7, trans-2,3,3a,4,5,9b-Hexahydro-7-methoxy-2-methyl-3-phenylmethyl-1H-benz[e]isoindole]
- pIC50 (norepinephrine uptake): 6.49
- pIC50 (5-HT (serotonin) uptake): 4.91
- pIC50 (dopamine uptake): 4.87

Structure (SMILES): CN1CC2c3ccccc3CCC2C1Cc1ccccc1 (stereo not drawn) [Example 9, cis-2,3,3a,4,5,9b-Hexahydro-2-methyl-3-phenylmethyl-1H-benz[e]isoindole methanesulfonic acid salt]
- pIC50 (norepinephrine uptake): 7.32
- pIC50 (5-HT (serotonin) uptake): 5.18
- pIC50 (dopamine uptake): 6.27

Structure (SMILES): CN1CC2c3ccccc3CCC2C1Cc1ccccc1 (stereo not drawn) [Example 10, trans-2,3,3a,4,5,9b-Hexahydro-2-methyl-3-phenylmethyl-1H-benz[e]isoindole methanesulfonic acid salt]
- pIC50 (norepinephrine uptake): 6.34
- pIC50 (5-HT (serotonin) uptake): 4.87
- pIC50 (dopamine uptake): 5.17

Structure (SMILES): Cc1cccc(CC2NCC3c4ccccc4CCC23)c1 (stereo not drawn) [Example 11, cis-2,3,3a,4,5,9b-Hexahydro-3-(3-methylphenyl)methyl-1H-benz[e]isoindole hydrochloride]
- pIC50 (norepinephrine uptake): 6.62
- pIC50 (5-HT (serotonin) uptake): 6.08
- pIC50 (dopamine uptake): 5.29

Structure (SMILES): Cc1cccc(CC2C3CCc4ccccc4C3CN2C)c1 (stereo not drawn) [Example 12, cis-2,3,3a,4,5,9b-Hexahydro-2-methyl-3-(3-methylphenyl)methyl-1H-benz[e]isoindole hydrochloride]
- pIC50 (norepinephrine uptake): 7.43
- pIC50 (5-HT (serotonin) uptake): 5.75
- pIC50 (dopamine uptake): 6.24

Structure (SMILES): CCN1CC2c3ccccc3CCC2C1Cc1cccc(C)c1 (stereo not drawn) [Example 13, cis-2 -Ethyl-2,3,3a,4,5,9b-hexahydro-3-(3-methylphenyl)methyl-1H-benz[e]isoindole hydrochloride]
- pIC50 (norepinephrine uptake): 7.74
- pIC50 (5-HT (serotonin) uptake): 6.29
- pIC50 (dopamine uptake): 6.83

Structure (SMILES): Fc1cccc(CC2NCC3c4ccccc4CCC23)c1 (stereo not drawn) [Example 15, cis-3-(3-Fluorophenyl)methyl-2,3,3a,4,5,9b-hexahydro-1H-benz[e]isoindole hydrochloride]
- pIC50 (norepinephrine uptake): 6.46
- pIC50 (5-HT (serotonin) uptake): 4.82
- pIC50 (dopamine uptake): 5.11

Structure (SMILES): CN1CC2c3ccccc3CCC2C1Cc1cccc(F)c1 (stereo not drawn) [Example 16, cis-3-(3-Fluorophenyl)methyl-2,3,3a,4,5,9b-hexahydro-2-methyl-1H-benz[e]isoindole hydrochloride]
- pIC50 (norepinephrine uptake): 7.30
- pIC50 (5-HT (serotonin) uptake): 5.26
- pIC50 (dopamine uptake): 6.36

Structure (SMILES): Fc1ccc(CC2NCC3c4ccccc4CCC23)cc1 (stereo not drawn) [Example 17, 3-(4-Fluorophenyl)methyl-2,3,3a,4,5,9b-hexahydro-1 H-benz[e]isoindole methanesulfonic acid salt]
- pIC50 (norepinephrine uptake): 6.18
- pIC50 (5-HT (serotonin) uptake): 4.96
- pIC50 (dopamine uptake): 5.04

Structure (SMILES): CN1CC2c3ccccc3CCC2C1Cc1ccc(F)cc1 (stereo not drawn) [Example 18, cis-3-(4-Fluorophenyl)methyl-2,3,3a,4,5,9b-hexahydro-2-methyl-1H-benz[e]isoindole methanesulfonic acid salt]
- pIC50 (norepinephrine uptake): 6.62
- pIC50 (5-HT (serotonin) uptake): 5.54
- pIC50 (dopamine uptake): 5.32
